From patent EP4559923A1, “ANTIHISTAMINE COMPOUND, AND PREPARATION METHOD THEREFOR AND USE THEREOF” (HC Synthetic Pharmaceutical Co., Ltd., priority 2022, dated 2024)
Converted amounts (≈) assume the structure as drawn.

Tests used:
[1] = system: histamine-induced asthma; test: Antiasthmatic effect on histamine-induced asthma in guinea pigs (latency period); assay type: in vivo; details: 1 mg/kg oral gavage, sixty minutes after administration; histamine hydrochloride spray; no asthma within 8 minutes counted as 8 minutes; X±s, n = 5
[2] = Muscle tone of isolated ileal smooth muscle of guinea pigs contracted with histamine; details: Table 4; 3 minutes after adding 0.05 mL compound at maximum histamine contraction; x±s, n = 8
[3] = system: histamine; test: as above; details: Table 4; relative to tone after adding histamine; x±s, n = 8; 3 min
[4] = system: isolated ileal smooth muscle; test: Muscle tone of isolated ileal smooth muscle of guinea pigs, compound alone; details: Table 3, no histamine, X±s, n = 8
[5] = Accelerated stability test; assay type: physicochemical; details: 40°C ± 2°C, relative humidity 75% ± 5%
[6] = Solubility in water, methanol and isopropanol
Procedure: The solubility in water, methanol, and isopropanol of the compounds of the present disclosure and the comparative compounds were measured separately.

Content ([5]; Month 0): 99.6%
Description ([5]; Month 0): White powder
Related substances ([5]; Month 0): 0.03%
Description ([5]; Month 1): White powder
Related substances ([5]; Month 1): 0.06%
Description ([5]; Month 2): White powder
Related substances ([5]; Month 2): 0.09%
Description ([5]; Month 3): White powder
Related substances ([5]; Month 3): 0.13%
Description ([5]; Month 6): White powder
Related substances ([5]; Month 6): 0.28%
remaining at 730 h ([5]; storage 75% relative humidity, Month 1, read-out: Content): 99.6%
remaining at 1460 h ([5]; storage 75% relative humidity, Month 2, read-out: Content): 99.5%
remaining at 2190 h ([5]; storage 75% relative humidity, Month 3, read-out: Content): 99.5%
remaining at 4380 h ([5]; storage 75% relative humidity, Month 6, read-out: Content): 99.3%
solubility Isopropanol ([6]; in isopropanol): 4 mg/mL (≈ 8.39 mM)
solubility Methanol ([6]; in methanol): 27 mg/mL (≈ 56.6 mM)
solubility Water ([6]; in water): 287 mg/mL (≈ 602 mM)
Structure (SMILES): O=P(O)(O)OCCCCCN1CCC(=C2c3ccc(Cl)cc3CCc3cccnc32)CC1 [Compound IV-7]
Post-administration latency period [1]: 367.32 ± 53.01 s
Smooth muscle tone (g) After administration [2]: 1.15 ± 0.23 g
Antispasmodic percentage (%) [3]: 66.76±19.32%
Smooth muscle tone (g) After administration ([4]; 5 minutes after adding the drug): 1.16 ± 0.27 g
Antispasmodic percentage (%) ([4]; relative to tone before adding compound, 5 min): 31.76±18.66%
